Drawing on PubChem BioAssay AID328 (DTP/NCI, 2004), this text covers T/C for 20 compounds.

Several values for one entry are separate records, joined by “and”; a condition that tells them apart may be missing. Equal values may be shown once. Inconclusive results and toxic doses are left out.

The assay has as its system BDF1 mice, P388 leukemia ip, median survival T/C. Briefly: NCI In Vivo Anticancer Drug Screen. Data for tumor model P388 Leukemia (intraperitoneal) in B6D2F1 (BDF1) mice. Conditions: endpoint: median survival time, higher = longer survival. An outline of the steps:
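Mice carrying the transplantable tumour receive compound or vehicle. Survival is followed in each arm, and the treated measure is divided by the vehicle measure.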

[1] abbreviates: dose: 200.0 mg/kg/injection, schedule: Q01DX001 (ip), vehicle: Klucel (hydroxypropylcellulose) (HPC).
[2] abbreviates: dose: 12.5 mg/kg/injection, schedule: Q04DX003 (ip), vehicle: saline with Tween-80.
Where [3] appears, read: dose: 25.0 mg/kg/injection, schedule: Q04DX003 (ip), vehicle: saline with Tween-80.
The mark [4] stands for this setting: dose: 20.0 mg/kg/injection, schedule: Q01DX009 (ip), vehicle: saline with Tween-80.
[5] abbreviates: dose: 40.0 mg/kg/injection, schedule: Q01DX009 (ip), vehicle: saline with Tween-80.
Where [6] appears, read: dose: 100.0 mg/kg/injection, schedule: Q01DX009 (ip), vehicle: saline with Tween-80.
Setting [7] is: dose: 200.0 mg/kg/injection, schedule: Q01DX009 (ip), vehicle: saline with Tween-80.
Where [8] appears, read: dose: 100.0 mg/kg/injection, schedule: Q04DX003 (ip), vehicle: Klucel (hydroxypropylcellulose) (HPC).
The mark [9] stands for this setting: dose: 200.0 mg/kg/injection, schedule: Q04DX003 (ip), vehicle: Klucel (hydroxypropylcellulose) (HPC).
The mark [10] stands for this setting: dose: 400.0 mg/kg/injection, schedule: Q04DX003 (ip), vehicle: Klucel (hydroxypropylcellulose) (HPC).
[11] abbreviates: dose: 100.0 mg/kg/injection, schedule: Q01DX009 (ip), vehicle: Klucel (hydroxypropylcellulose) (HPC).
[12] abbreviates: dose: 200.0 mg/kg/injection, schedule: Q01DX009 (ip), vehicle: Klucel (hydroxypropylcellulose) (HPC).
[13] abbreviates: dose: 400.0 mg/kg/injection, schedule: Q01DX009 (ip), vehicle: Klucel (hydroxypropylcellulose) (HPC).
[14] abbreviates: dose: 50.0 mg/kg/injection, schedule: Q01DX009 (ip), vehicle: saline with Tween-80.

With `O.O.O=C(CC(=O)C(F)(F)F)C(F)(F)F.O=C(CC(=O)C(F)(F)F)C(F)(F)F.[Ni]`, under setting [1], the T/C was 104 % of control.
With `O=[N+]([O-])c1ccc(N=Cc2ccc3c(c2)OCO3)cc1`, the T/C (dose: 100.0 mg/kg/injection, schedule: Q01DX001 (ip), vehicle: Klucel (hydroxypropylcellulose) (HPC)) is 100 % of control; the T/C under setting [1] is 95 % of control; the T/C (dose: 400.0 mg/kg/injection, schedule: Q01DX001 (ip), vehicle: Klucel (hydroxypropylcellulose) (HPC)) was 95 % of control.
For the compound `CCOC(=O)C(Cc1ccc(N(CCCl)CCCl)cc1)NC(=O)CNC(C)=O` (stereo unspecified), the T/C reads like this: under setting [2], 177 % of control; under setting [3], 200 % of control; (dose: 33.0 mg/kg/injection, schedule: Q04DX003 (ip), vehicle: saline with Tween-80) 280 % of control and 218 % of control; (dose: 50.0 mg/kg/injection, schedule: Q04DX003 (ip), vehicle: saline with Tween-80) 259 % of control and 272 % of control and 170 % of control; (dose: 75.0 mg/kg/injection, schedule: Q04DX003 (ip), vehicle: saline with Tween-80) 204 % of control.
Turning to `CN1C(=O)Cc2[nH]ccc2C1=O`, the T/C is 106 % of control (dose: 3.13 mg/kg/injection, schedule: Q04DX003 (ip), vehicle: saline with Tween-80); 109 % of control (dose: 6.25 mg/kg/injection, schedule: Q04DX003 (ip), vehicle: saline with Tween-80); 119 % of control and 120 % of control under setting [2]; 118 % of control under setting [3].
For the compound `CCN(CC)CCCCCNc1cc(OC)cc2c(C)ccnc12`, the T/C is 115 % of control (dose: 50.0 mg/kg/injection, schedule: Q01DX009 (ip), vehicle: saline) and 92 % of control (dose: 100.0 mg/kg/injection, schedule: Q01DX009 (ip), vehicle: saline).
For `CCCCC(CC)COP(OCC(CC)CCCC)OCC(CC)CCCC` (stereo unspecified), the T/C reads like this: (dose: 100.0 mg/kg/injection, schedule: Q04DX003 (ip), vehicle: saline with Tween-80) 109 % of control; (dose: 200.0 mg/kg/injection, schedule: Q04DX003 (ip), vehicle: saline with Tween-80) 100 % of control; (dose: 400.0 mg/kg/injection, schedule: Q04DX003 (ip), vehicle: saline with Tween-80) 118 % of control.
As to `Cc1cccc(NC(=O)N(CCCl)N=O)c1`, the T/C is 157 % of control (dose: 0.4 mg/kg/injection, schedule: Q01DX009 (ip), vehicle: saline); 100 % of control (dose: 38.0 micrograms/kg/injection, schedule: Q04DX003 (ip), vehicle: saline); 109 % of control (dose: 75.0 micrograms/kg/injection, schedule: Q04DX003 (ip), vehicle: saline); 104 % of control (dose: 150.0 micrograms/kg/injection, schedule: Q04DX003 (ip), vehicle: saline); 109 % of control (dose: 300.0 micrograms/kg/injection, schedule: Q04DX003 (ip), vehicle: saline).
Consider `COc1cc2cnc3c4cc5c(cc4ccc3c2cc1OC)OCO5`, for which the T/C was 95 % of control under setting [4]; 105 % of control under setting [5]; 105 % of control (dose: 80.0 mg/kg/injection, schedule: Q01DX009 (ip), vehicle: saline with Tween-80); 95 % of control (dose: 120.0 mg/kg/injection, schedule: Q01DX009 (ip), vehicle: saline with Tween-80); 110 % of control (dose: 240.0 mg/kg/injection, schedule: Q01DX009 (ip), vehicle: saline with Tween-80).
`O=C(OC(=O)c1ccc([N+](=O)[O-])cc1)c1ccc([N+](=O)[O-])cc1`: the T/C (dose: 100.0 mg/kg/injection, schedule: Q04DX003 (sc), vehicle: olive oil, sesame oil, peanut oil) is 110 % of control; the T/C (dose: 200.0 mg/kg/injection, schedule: Q04DX003 (sc), vehicle: olive oil, sesame oil, peanut oil) is 105 % of control; the T/C (dose: 400.0 mg/kg/injection, schedule: Q04DX003 (sc), vehicle: olive oil, sesame oil, peanut oil) is 105 % of control.
For the compound `OC(COC(c1ccccc1)(c1ccccc1)c1ccccc1)C(O)CC1SCCS1` (stereo unspecified), the T/C runs as follows: (dose: 100.0 mg/kg/injection, schedule: Q01DX009 (ip), vehicle: saline sonified) 100 % of control; (dose: 100.0 mg/kg/injection, schedule: Q04DX003 (ip), vehicle: saline sonified) 112 % of control; (dose: 200.0 mg/kg/injection, schedule: Q01DX009 (ip), vehicle: saline sonified) 110 % of control; (dose: 200.0 mg/kg/injection, schedule: Q04DX003 (ip), vehicle: saline sonified) 100 % of control; (dose: 400.0 mg/kg/injection, schedule: Q01DX009 (ip), vehicle: saline sonified) 95 % of control; (dose: 400.0 mg/kg/injection, schedule: Q04DX003 (ip), vehicle: saline sonified) 108 % of control.
Take `C=C(C)c1c2ccccc2cc2cccc(Sc3ccccc3)c12`: the T/C reads like this: under setting [6], 100 % of control; under setting [7], 95 % of control; (dose: 400.0 mg/kg/injection, schedule: Q01DX009 (ip), vehicle: saline with Tween-80) 100 % of control.
Turning to `COC(=O)CNC(=O)C(CSCc1ccccc1)NC(=O)OCc1ccccc1` (stereo unspecified), the T/C by setting is: under setting [8], 95 % of control; under setting [9], 100 % of control; under setting [10], 90 % of control.
For the compound `CC(=O)c1ccc(Cc2ccc(C(C)=O)cc2)cc1`, the T/C reads like this: under setting [11], 104 % of control; under setting [8], 100 % of control; under setting [12], 104 % of control; under setting [9], 109 % of control; under setting [13], 100 % of control; under setting [10], 95 % of control.
Consider `[NH-]S(=O)(=O)O.[NH-]S(=O)(=O)O.[NH2-].[NH2-].[Pt+4]`, for which the T/C is 90 % of control (dose: 10.0 mg/kg/injection, schedule: Q01DX009 (ip), vehicle: saline with Tween-80); 100 % of control (dose: 10.0 mg/kg/injection, schedule: Q04DX003 (ip), vehicle: saline); 100 % of control under setting [4]; 100 % of control (dose: 20.0 mg/kg/injection, schedule: Q04DX003 (ip), vehicle: saline); 90 % of control under setting [5]; 108 % of control (dose: 40.0 mg/kg/injection, schedule: Q04DX003 (ip), vehicle: saline).
Turning to `CCCC(=O)OCC1OC(n2cnc3c(=S)nc(N)[nH]c32)C(OC(=O)CCC)C1OC(=O)CCC` (stereo unspecified), the T/C (dose: 16.5 mg/kg/injection, schedule: Q04DX003 (ip), vehicle: saline with Tween-80) is 177 % of control; the T/C under setting [3] is 154 % of control; the T/C (dose: 37.5 mg/kg/injection, schedule: Q04DX003 (ip), vehicle: saline with Tween-80) was 161 % of control.
Turning to `O=c1nc(-c2ccccc2)nc2ccccn12`, the T/C was 101 % of control under setting [14], 106 % of control under setting [6] and 111 % of control under setting [7].
For `Cc1c(C)c(Cl)c(C)c(Cl)c1O`, the T/C was 109 % of control under setting [11]; 100 % of control under setting [8]; 100 % of control under setting [12]; 104 % of control under setting [9]; 109 % of control under setting [13]; 100 % of control under setting [10].
Take `O=Nc1ccc(O)c2ncccc12`: the T/C (dose: 50.0 mg/kg/injection, schedule: Q01DX001 (ip), vehicle: Klucel (hydroxypropylcellulose) (HPC)) is 118 % of control.
Turning to `O=C(c1ccccc1)C1CCCCC1`, the T/C runs as follows: (dose: 12.0 mg/kg/injection, schedule: Q04DX003 (ip), vehicle: Klucel (hydroxypropylcellulose) (HPC)) 104 % of control; (dose: 25.0 mg/kg/injection, schedule: Q04DX003 (ip), vehicle: Klucel (hydroxypropylcellulose) (HPC)) 109 % of control; (dose: 50.0 mg/kg/injection, schedule: Q04DX003 (ip), vehicle: Klucel (hydroxypropylcellulose) (HPC)) 100 % of control; (dose: 200.0 mg/kg/injection, schedule: Q04DX003 (ip), vehicle: saline) 107 % of control; (dose: 400.0 mg/kg/injection, schedule: Q04DX003 (ip), vehicle: saline) 107 % of control.
In the case of `O=C1Oc2ccccc2C(=O)/C1=C1\SSC(c2ccccc2)=C1c1ccccc1`, the T/C by setting is: under setting [14], 99 % of control; under setting [6], 96 % of control; under setting [7], 96 % of control.
